Source: US12264146B2, “Rho kinase inhibitor, method for preparing same and uses thereof” (BEIJING INCREASE INNOVATIVE DRUG CO., LTD., priority 2018, dated 2025)

Tests used:
[1] = Toxicity test on endothelial cells EA.hy926, CCK-8 cell viability; assay type: cell-based; conditions: human, 1000~0.32 μmol/L, 5-fold dilution, read-out: IC50 of Test compound (cytotoxicity on EA.hy926 cells)
Description: In this test example, 31 groups, i.e., Groups 1 to 31, were set, in which Group 1 was a blank control group, Group 2 was a normal control group, Group 3 was a positive control group, and Groups 4 to 31 were test groups of the compounds of the present application. The specific test operation comprised: 100 μL of endothelial cells EA.hy926 (purchased from Suzhou Beina Chuanglian Biotechnology Co., Ltd.) with a density of 5×10^4 was added to each well of a 96-well plate, and transferred to an incubator at 37° C. with 5% CO2 and saturated humidity conditions and cultured for 24 hours, 100 μL of 2× the test compound solution prepared and diluted with DMEM medium containing 10% fetal bovine serum was added, in which the test compound added in the positive control group was Fasudil hydrochloride (purchased from Beijing Sihuan Pharmaceutical Co., Ltd., SFDA approval number H20173349) solution with different concentrations, an equal volume of DMEM medium was added in the blank control group, an equal volume of PBS buffer was added in the normal control group, and a duplicate well was set for each concentration point. After adding the test compound, the culture was continued in the incubator for 24 hours, then 20 μL of CCK-8 detection solution (purchased from Beijing Solarbio Science & Technology Co., Ltd., Cat. No. CA1210) was added to each well, interacted at 37° C. for 2.5 hours, shaken and mixed well, and then the absorbance value at 450 nm was detected.
OD values were detected, and the cell viability values of test groups of different concentrations were calculated according to the cell viability calculation formula as follows: Cell viability=(Atest group−Ablank control)/(Anormal control−Ablank control)*100%
wherein A represented absorbance value at 450 nm.
Prism6.0 was used to obtain the inhibitor concentration-viability curve and to calculate the IC50 of the test compound, the correlation coefficient R^2>0.99; the inhibitor concentration-viability curves of Fasudil hydrochloride, R-YK1601, R-YK1603, R-YK1606, R-YK1607, R-YK1610 were shown in FIGS. 1 to 6, in which the abscissa was the logarithm on base 10 of the concentration of the test compound, and the ordinate was the cell activity (i.e., cell viability).

[2] = tested on: subarachnoid hemorrhage in rats; assay: Rat subarachnoid hemorrhage (SAH) model by intravascular puncture, Sugawara bleeding score; assay type: in vivo; parameters: dose or concentration left out as unconfirmed; conditions: tail vein injection, 2 administrations 4 h apart, scored 24 h after first administration (Sugawara)
Description: Rat subarachnoid hemorrhage (SAH) model was built by intravascular puncture. After being weighed, the rats were anesthetized with sodium pentobarbital (50 mg/kg) or chloral hydrate (300 mg/kg) by intraperitoneal injection, then fixed on their back and maintained the animal's body temperature at about 37° C. The rats' neck skin was shaved for surgery, a median incision was made on the neck, and muscle and fascia were separated along the inner edge of stemocleidomastoid muscle to expose the main and bifurcation of right common carotid artery, and expose the external and internal carotid arteries.
The bifurcation of internal carotid artery was gently clamped with ophthalmic forceps, the bifurcation of the internal carotid artery and the external carotid artery was pierced with a 6-gauge syringe needle, the ophthalmic forceps holding the bifurcation of internal carotid artery was slightly loosen, and No. 3 fishing thread was used to perform a puncture at the bleeding point, the ophthalmic forceps on the internal carotid artery was loosen, and the fishing thread was inserted into skull. […] After staying for 15 seconds, the thread for puncture was completely removed, and the skin was sutured after compression to stop the bleeding. 1.6 million units of penicillin potassium (400,000 units/ml, 0.2 ml/rat) was intramuscularly injected to avoid wound infection. For the sham operation group, the thread for puncture was removed when resistance was felt without piercing the bifurcation of the anterior cerebral artery and the middle cerebral artery, while the remaining operation steps were the same as the model group. After the operation, the rats were transferred to a thermal insulation blanket, then transferred to a squirrel cage when they were basically awake, and kept normally.
In this test experimental, 32 groups were set, i.e., Groups 1 to 32, in which Group 1 was a normal control group (healthy rats), Group 2 was a sham operation control group (not modeling by puncture), Group 3 was a model control group (modeling by puncture, administrated with normal saline), Group 4 was a positive control group (modeling by puncture, administrated with fasudil hydrochloride injection), and Groups 5 to 32 were test groups of the compounds of the present application (modeling by puncture, respectively administrated with the compounds of the present application); and there were 8 animals (purchased from SPF (Beijing) Biotechnology Co., Ltd., the certificate number was SYXK (Beijing) 2016-0002) in each group, half of them were female and half of them were male. The animals were subjected to fasting for 12 to 18 hours without prohibition of drinking water before modeling. […] The rats were euthanized 24 h after the first administration, and the brains were taken. According to Sugawara's method (Reference: Sugawara T, Ayer R, Jadhav V, et al. A new grading system evaluating bleeding scale in filament perforation subarachnoid hemorrhage rat model. J Neurosci Methods. 2008, 167(2):327-34), the subarachnoid hemorrhage amounts were scored, and the scoring results were as follows: […]

CC1CNCCCN1S(=O)(=O)c1cccc2c(O)ncc(C3CC3)c12 (racemic) [Compound YK1600-1, 4-cyclopropyl-5-((2-methyl-1,4-diazacycloheptan-1-yl)sulfonyl)isoquinolin-1-ol]
IC50 at 24 h [1]: 97.8 µM | Cerebral hemorrhage volume score (x ± s) [2]: 14.36 ± 2.53

COc1ncc(C2CC2)c2c(S(=O)(=O)N3CCCNCC3C)cccc12 (racemic) [Compound YK1600-2, 4-cyclopropyl-1-methoxy-5-((2-methyl-1,4-diazacycloheptan-1-yl)sulfonyl)isoquinoline]
IC50 at 24 h [1]: 85.1 µM | Cerebral hemorrhage volume score (x ± s) [2]: 14.49 ± 2.62

CC1CNCCCN1S(=O)(=O)c1cccc2c(O)nccc12 (racemic) [Compound YK1601, 5-((2-methyl-1,4-diazacycloheptan-1-yl)sulfonyl)isoquinolin-1-ol]
IC50 at 24 h [1]: 496 µM | Cerebral hemorrhage volume score (x ± s) [2]: 12.75 ± 2.01

COc1nccc2c(S(=O)(=O)N3CCCNCC3C)cccc12 (racemic) [Compound YK1602, 1-methoxy-5-((2-methyl-1,4-diazacycloheptan-1-yl)sulfonyl)isoquinoline]
IC50 at 24 h [1]: 333 µM | Cerebral hemorrhage volume score (x ± s) [2]: 12.92 ± 2.03

CC1CNCCCN1S(=O)(=O)c1cccc2cnccc12 (racemic) [Compound YK1603, 5-((2-methyl-1,4-diazacycloheptan-1-yl)sulfonyl)isoquinoline]
IC50 at 24 h [1]: 176 µM | Cerebral hemorrhage volume score (x ± s) [2]: 12.96 ± 1.99

CC1CNCCCN1S(=O)(=O)c1cccc2c(O)ncc(F)c12 (racemic) [Compound YK1604, 4-fluoro-5-((2-methyl-1,4-diazacycloheptan-1-yl)sulfonyl)isoquinolin-1-ol]
IC50 at 24 h [1]: 130 µM | Cerebral hemorrhage volume score (x ± s) [2]: 13.08 ± 1.97

COc1ncc(F)c2c(S(=O)(=O)N3CCCNCC3C)cccc12 (racemic) [Compound YK1605, 4-fluoro-1-methoxy-5-((2-methyl-1,4-diazacycloheptan-1-yl)sulfonyl)isoquinoline]
IC50 at 24 h [1]: 103 µM | Cerebral hemorrhage volume score (x ± s) [2]: 13.95 ± 2.02

CC1CNCCCN1S(=O)(=O)c1cccc2c(O)ncc(Cl)c12 (racemic) [Compound YK1606, 4-chloro-5-((2-methyl-1,4-diazacycloheptan-1-yl)sulfonyl)isoquinolin-1-ol]
IC50 at 24 h [1]: 98 µM | Cerebral hemorrhage volume score (x ± s) [2]: 13.71 ± 2.03

CCc1cnc(O)c2cccc(S(=O)(=O)N3CCCNCC3C)c12 (racemic) [Compound YK1607, 4-ethyl-5-((2-methyl-1,4-diazacycloheptan-1-yl)sulfonyl)isoquinolin-1-ol]
IC50 at 24 h [1]: 139 µM | Cerebral hemorrhage volume score (x ± s) [2]: 13.09 ± 2.09

O=S(=O)(c1cccc2cnccc12)N1CCCNCC1C1CC1 (racemic) [Compound YK1608, 5-((2-cyclopropyl-1,4-diazacycloheptan-1-yl)sulfonyl)isoquinoline]
IC50 at 24 h [1]: 165 µM | Cerebral hemorrhage volume score (x ± s) [2]: 13.98 ± 2.01

CC(C)C1CNCCCN1S(=O)(=O)c1cccc2c(O)nccc12 (racemic) [Compound YK1609, 5-((2-isopropyl-1,4-diazacycloheptan-1-yl)sulfonyl)isoquinolin-1-ol]
IC50 at 24 h [1]: 228 µM | Cerebral hemorrhage volume score (x ± s) [2]: 13.27 ± 1.96

CCC1CNCCCN1S(=O)(=O)c1cccc2c(OC)nccc12 (racemic) [Compound YK1610, 5-((2-ethyl-1,4-diazacycloheptan-1-yl)sulfonyl)-1-methoxyisoquinoline]
IC50 at 24 h [1]: 98.8 µM | Cerebral hemorrhage volume score (x ± s) [2]: 13.83 ± 2.01

CCCCC1CNCCCN1S(=O)(=O)c1cccc2c(O)nccc12 (racemic) [Compound YK1611, 5-((2-butyl-1,4-diazacycloheptan-1-yl)sulfonyl)isoquinolin-1-ol]
IC50 at 24 h [1]: 184 µM | Cerebral hemorrhage volume score (x ± s) [2]: 13.39 ± 2.03

COc1nccc2c(S(=O)(=O)N3CCCNCC3CCC(C)C)cccc12 (racemic) [Compound YK1612, 5-((2-isopentyl-1,4-diazacycloheptan-1-yl)sulfonyl)-1-methoxyisoquinoline]
IC50 at 24 h [1]: 89.6 µM | Cerebral hemorrhage volume score (x ± s) [2]: 14.05 ± 1.96
